# According to ChEMBL document CHEMBL1137086, “Identification of compounds with nanomolar binding affinity for checkpoint kinase-1 using knowledge-based virtual screening” (J Med Chem, 2004):
# Target: T1, Serine/threonine-protein kinase Chk1 (Homo sapiens, UniProt O14757)
# T1 sequence (O14757 whole entry): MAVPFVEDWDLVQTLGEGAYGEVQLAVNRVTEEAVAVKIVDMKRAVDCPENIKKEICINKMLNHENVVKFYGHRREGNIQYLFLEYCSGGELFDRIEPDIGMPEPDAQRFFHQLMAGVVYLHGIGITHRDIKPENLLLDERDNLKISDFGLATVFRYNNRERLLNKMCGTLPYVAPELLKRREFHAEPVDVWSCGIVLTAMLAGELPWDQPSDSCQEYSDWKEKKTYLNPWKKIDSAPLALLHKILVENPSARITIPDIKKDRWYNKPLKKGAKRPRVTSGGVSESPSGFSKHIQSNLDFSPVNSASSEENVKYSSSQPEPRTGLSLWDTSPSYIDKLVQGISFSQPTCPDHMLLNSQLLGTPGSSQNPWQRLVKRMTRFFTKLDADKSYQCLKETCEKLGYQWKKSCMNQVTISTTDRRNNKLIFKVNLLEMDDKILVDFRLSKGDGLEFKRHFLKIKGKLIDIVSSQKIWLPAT
# Test: Inhibition of checkpoint kinase-1
row,IC50 [nM],SMILES
1,450,COc1ccc(Nc2nc(Nc3ccc(C(=O)O)cc3)ncc2Br)cc1
2,4000,N#Cc1ccc2c(c1)NC(=O)C2c1ncnc2cc(OCCCN3CCOCC3)ccc12 (configuration not stated)
